According to ChEMBL document CHEMBL5214989, “Overcoming Preclinical Safety Obstacles to Discover (S)-N-((1,2,3,5,6,7-Hexahydro-s-indacen-4-yl)carbamoyl)-6-(methylamino)-6,7-dihydro-5H-pyrazolo[5,1-b][1,3]oxazine-3-sulfonamide (GDC-2394): A Potent and Selective NLRP3 Inhibitor” (J Med Chem, 2022):
pIC50: −log10 of the molar value. Converted amounts (≈) assume the structure as drawn. The source made the active and inactive calls. The calls are words filed in the database; no cut-off is given here.

Key:
[1] = Half life in Sprague-Dawley rat at 1 mg/kg, iv measured upto 24 hrs by LC-MS/MS analysis; format: ADME, organism-based; conditions: in vivo
[2] = Oral bioavailability in Beagle dog at 1 mg/kg measured upto 24 hrs by LC-MS/MS analysis; format: ADME, organism-based, Canis lupus familiaris; conditions: in vivo
[3] = Oral bioavailability in Sprague-Dawley rat at 1 mg/kg measured upto 24 hrs by LC-MS/MS analysis; format: ADME, organism-based; conditions: in vivo
[4] = Oral bioavailability in CD-1 mouse at 1 mg/kg measured upto 24 hrs by LC-MS/MS analysis; format: ADME, organism-based; conditions: in vivo
[5] = Volume of distribution at steady state in Beagle dog at 1 mg/kg, po or 1 mg/kg, iv measured upto 24 hrs by LC-MS/MS analysis; format: ADME, organism-based, Canis lupus familiaris; conditions: in vivo
[6] = Renal toxicity in cynomolgus monkey upto 500 mg/kg/day measured for 14 days; format: organism-based, Macaca fascicularis; conditions: in vivo, 336 h, time 14 day
[7] = Half life in Beagle dog at 1 mg/kg, iv measured upto 24 hrs by LC-MS/MS analysis; format: ADME, organism-based, Canis lupus familiaris; conditions: in vivo
[8] = Volume of distribution at steady state in cynomolgus monkey at 1 mg/kg, po or 1 mg/kg, iv measured upto 24 hrs by LC-MS/MS analysis; format: ADME, organism-based, Macaca fascicularis; conditions: in vivo
[9] = Apparent permeability across apical to basolateral side in dog MDCK cells; format: ADME, cell-based, Canis lupus familiaris
[10] = Plasma protein binding in rat relative to control; format: ADME, cell-free; conditions: read-out: PPB (converted)
[11] = Plasma protein binding in mouse relative to control; format: ADME, cell-free; conditions: read-out: PPB (converted)
hERG (KCNH2) [12] = target: T1, hERG (KCNH2) (Homo sapiens, UniProt Q12809); assay: Inhibition of hERG at 1 uM relative to control; format: toxicity
T1 sequence (Q12809 whole entry): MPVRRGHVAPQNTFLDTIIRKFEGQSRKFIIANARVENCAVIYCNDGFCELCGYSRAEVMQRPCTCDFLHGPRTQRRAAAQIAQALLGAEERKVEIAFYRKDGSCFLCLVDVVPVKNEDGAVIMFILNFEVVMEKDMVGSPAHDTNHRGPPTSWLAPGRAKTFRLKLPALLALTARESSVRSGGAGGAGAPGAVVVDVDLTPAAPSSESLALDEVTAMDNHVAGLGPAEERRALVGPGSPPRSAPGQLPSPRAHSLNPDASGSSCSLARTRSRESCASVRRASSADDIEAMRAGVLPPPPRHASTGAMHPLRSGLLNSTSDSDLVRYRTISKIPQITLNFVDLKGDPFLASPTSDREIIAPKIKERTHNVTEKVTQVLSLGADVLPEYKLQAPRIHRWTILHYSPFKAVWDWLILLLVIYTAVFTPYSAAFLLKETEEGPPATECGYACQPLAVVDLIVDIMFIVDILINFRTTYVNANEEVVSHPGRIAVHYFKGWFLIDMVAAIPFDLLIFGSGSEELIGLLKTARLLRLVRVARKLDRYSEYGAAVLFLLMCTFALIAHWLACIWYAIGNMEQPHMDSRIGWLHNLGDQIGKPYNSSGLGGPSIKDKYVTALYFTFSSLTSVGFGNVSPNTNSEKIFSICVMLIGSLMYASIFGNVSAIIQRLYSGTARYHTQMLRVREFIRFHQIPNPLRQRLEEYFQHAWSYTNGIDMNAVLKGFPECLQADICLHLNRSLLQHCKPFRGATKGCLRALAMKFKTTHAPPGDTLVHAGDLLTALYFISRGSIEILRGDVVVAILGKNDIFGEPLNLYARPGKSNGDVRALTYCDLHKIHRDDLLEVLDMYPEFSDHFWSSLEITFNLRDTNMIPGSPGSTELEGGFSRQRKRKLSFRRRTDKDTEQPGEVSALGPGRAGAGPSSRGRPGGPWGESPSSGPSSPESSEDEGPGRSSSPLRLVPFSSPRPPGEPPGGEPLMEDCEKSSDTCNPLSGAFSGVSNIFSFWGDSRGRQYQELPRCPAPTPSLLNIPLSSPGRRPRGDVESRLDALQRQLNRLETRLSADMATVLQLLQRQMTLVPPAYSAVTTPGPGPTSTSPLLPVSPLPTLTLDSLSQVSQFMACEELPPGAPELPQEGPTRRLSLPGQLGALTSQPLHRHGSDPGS

[13] = Solubility of compound at pH 1.50 to 7.50 by RP-HPLC analysis; format: physicochemical; conditions: buffer, pH 1.5
[14] = Kinetic solubility of compound; format: physicochemical; conditions: read-out: Kinetic_solubility
[15] = Plasma protein binding in human relative to control; format: ADME, cell-free; conditions: read-out: PPB (converted)
hERG (KCNH2) [16] = target: T1, hERG (KCNH2); assay: Inhibition of hERG at 10 uM relative to control; format: toxicity
[17] = Half life in cynomolgus monkey at 1 mg/kg, iv measured upto 24 hrs by LC-MS/MS analysis; format: ADME, organism-based, Macaca fascicularis; conditions: in vivo
[18] = Plasma protein binding in dog relative to control; format: ADME, cell-free, Canis lupus familiaris; conditions: read-out: PPB (converted)
[19] = Volume of distribution at steady state in CD-1 mouse at 1 mg/kg, po or 1 mg/kg, iv measured upto 24 hrs by LC-MS/MS analysis; format: ADME, organism-based; conditions: in vivo
[20] = Volume of distribution at steady state in Sprague-Dawley rat at 1 mg/kg, po or 1 mg/kg, iv measured upto 24 hrs by LC-MS/MS analysis; format: ADME, organism-based; conditions: in vivo
[21] = Plasma protein binding in cynomolgus monkey relative to control; format: ADME, cell-free, Macaca fascicularis; conditions: read-out: PPB (converted)
[22] = Oral bioavailability in cynomolgus monkey at 1 mg/kg measured upto 24 hrs by LC-MS/MS analysis; format: ADME, organism-based, Macaca fascicularis; conditions: in vivo
[23] = Renal toxicity in cynomolgus monkey assessed as minimal thymic lymphoid depletion at >= 300 mg/kg/day measured for 14 days; format: organism-based, Macaca fascicularis; conditions: in vivo, 336 h, time 14 day
[24] = Half life in CD-1 mouse at 1 mg/kg, iv measured upto 24 hrs by LC-MS/MS analysis; format: ADME, organism-based; conditions: in vivo
[25] = Hepatic toxicity in cynomolgus monkey upto 500 mg/kg/day measured for 14 days; format: organism-based, Macaca fascicularis; conditions: in vivo, 336 h, time 14 day
Rattus norvegicus = assay: Anti-allodynic activity in MSU-induced Wistar rat gouty arthritis model assessed as mechanical allodynia at 50 mg/kg, iv administered once daily for 7 days and measured on day 2; format: functional, organism-based; conditions: time 7.0 day
[26] = Cytotoxicity against human hepatocyte; format: toxicity, cell-based; conditions: hepatocytes
[27] = Renal toxicity in cynomolgus monkey at 100 mg/kg/day for 14 days; format: organism-based, Macaca fascicularis; conditions: in vivo, 336 h, time 14 day
[28] = Renal toxicity in cynomolgus monkey assessed as increase in kidney weight at 100 to 300 mg/kg/day for 14 days; format: organism-based, Macaca fascicularis; conditions: in vivo, 336 h, dose 100-300 mg/kg/day, time 14 day
[29] = Renal toxicity in cynomolgus monkey assessed as retrograde nephropathy at 100 to 300 mg/kg/day for 14 days; format: organism-based, Macaca fascicularis; conditions: in vivo, 336 h, dose 100-300 mg/kg/day, time 14 day
[30] = Renal toxicity in cynomolgus monkey assessed as increase in blood urea nitrogen at 100 to 300 mg/kg/day for 14 days; format: organism-based, Macaca fascicularis; conditions: in vivo, 336 h, dose 100-300 mg/kg/day, time 14 day

**Q.** For `CN[C@@H]1COc2c(S(=O)(=O)NC(=O)Nc3c4c(cc5c3CCC5)CCC4)cnn2C1`, which half-life [1] is on record?
**A.** 4.4 h

**Q.** What about the bioavailability [2] of the same molecule?
**A.** 78%

**Q.** What about the bioavailability [3] of the same molecule?
**A.** 33%

**Q.** And the bioavailability [4]?
**A.** 80%

**Q.** What about the Vdss [5] of the same molecule?
**A.** 0.67 L/kg

**Q.** And the Activity [6]?
**A.** Non-Toxic

**Q.** And the half-life [7]?
**A.** 0.99 h

**Q.** And the Vdss [8]?
**A.** 0.18 L/kg

**Q.** And the Papp A→B [9]?
**A.** 0.077 ×10⁻⁶ cm/s

**Q.** And the fraction unbound [10]?
**A.** 0.07

**Q.** And the fraction unbound [11]?
**A.** 0.024

**Q.** And the inhibition at 1 µM (hERG (KCNH2) [12])?
**A.** -3.1%

**Q.** And the solubility [13]?
**A.** Soluble

**Q.** What about the solubility kinetic at 24 h [14] of the same molecule?
**A.** 105 µM (≈ 45.3 µg/mL)

**Q.** What about the fraction unbound [15] of the same molecule?
**A.** 0.044

**Q.** And the inhibition at 10 µM (hERG (KCNH2) [16])?
**A.** 0.2%

**Q.** What about the half-life [17] of the same molecule?
**A.** 0.89 h

**Q.** What about the fraction unbound [18] of the same molecule?
**A.** 0.114

**Q.** And the Vdss [19]?
**A.** 0.72 L/kg

**Q.** What about the Vdss [20] of the same molecule?
**A.** 0.29 L/kg

**Q.** And the fraction unbound [21]?
**A.** 0.082

**Q.** And the bioavailability [22]?
**A.** 53%

**Q.** What about the Activity [23] of the same molecule?
**A.** Non-Toxic

**Q.** And the half-life [24]?
**A.** 1.2 h

**Q.** What about the Activity [25] of the same molecule?
**A.** Non-Toxic

**Q.** Which Activity (Rattus norvegicus) does the source give for `C=CC1=C(C(=O)O)N2C(=O)[C@@H](NC(=O)/C(=N\OCOC(=O)C(C)(C)C)c3csc(N)n3)C2SC1` (stereo partly drawn) here?
**A.** Active

**Q.** With `O=C(Nc1c2c(cc3c1CCC3)CCC2)NS(=O)(=O)c1cnn2c1OCCC2` [JT-001] as the molecule, how does the half-life [1] read?
**A.** 1.1 h

**Q.** And the pIC50 [26]?
**A.** < 4.00

**Q.** And the bioavailability [2]?
**A.** 28%

**Q.** What about the bioavailability [3] of the same molecule?
**A.** 30%

**Q.** What about the Activity [27] of the same molecule?
**A.** Toxic

**Q.** And the Activity [28]?
**A.** Toxic

**Q.** And the bioavailability [4]?
**A.** 18%

**Q.** What about the Vdss [5] of the same molecule?
**A.** 0.2 L/kg

**Q.** What about the half-life [7] of the same molecule?
**A.** 2.9 h

**Q.** What about the Vdss [8] of the same molecule?
**A.** 0.08 L/kg

**Q.** And the Papp A→B [9]?
**A.** 1.8 ×10⁻⁶ cm/s

**Q.** And the fraction unbound [10]?
**A.** 0.014

**Q.** What about the fraction unbound [11] of the same molecule?
**A.** 0.009

**Q.** What about the inhibition at 1 µM (hERG (KCNH2) [12]) of the same molecule?
**A.** 4.1%

**Q.** And the solubility [13]?
**A.** Soluble

**Q.** And the solubility kinetic at 24 h [14]?
**A.** 102 µM (≈ 41.1 µg/mL)

**Q.** And the fraction unbound [15]?
**A.** 0.014

**Q.** And the Activity [29]?
**A.** Toxic

**Q.** And the inhibition at 10 µM (hERG (KCNH2) [16])?
**A.** 9.7%

**Q.** And the half-life [17]?
**A.** 1.4 h

**Q.** What about the fraction unbound [18] of the same molecule?
**A.** 0.045

**Q.** And the Vdss [19]?
**A.** 0.2 L/kg

**Q.** What about the Vdss [20] of the same molecule?
**A.** 0.2 L/kg

**Q.** What about the fraction unbound [21] of the same molecule?
**A.** 0.04

**Q.** And the Activity [30]?
**A.** Toxic

**Q.** And the bioavailability [22]?
**A.** 17%

**Q.** And the half-life [24]?
**A.** 1.9 h
